Patent publication US20100061982A1, “3-SUBSTITUTED-1H-INDOLE, 3-SUBSTITUTED-1H-PYRROLO[2,3-B]PYRIDINE AND 3-SUBSTITUTED-1H-PYRROLO[3,2-B]PYRIDINE COMPOUNDS, THEIR USE AS MTOR KINASE AND PI3 KINASE INHIBITORS, AND THEIR SYNTHESES” (priority 2008, published 2010)
pIC50: −log10 of the molar value. Values after ≈ are worked out from the molar mass of the structure shown. Like-named read-outs stand apart in the source and are kept apart here.

Key:
PI3K alpha = PI3K alpha (Homo sapiens, UniProt P42336); test: PI3K-alpha Fluorescence Polarization Assay; assay type: biochemical
Sequence of PI3K alpha (P42336 whole entry, species assumed): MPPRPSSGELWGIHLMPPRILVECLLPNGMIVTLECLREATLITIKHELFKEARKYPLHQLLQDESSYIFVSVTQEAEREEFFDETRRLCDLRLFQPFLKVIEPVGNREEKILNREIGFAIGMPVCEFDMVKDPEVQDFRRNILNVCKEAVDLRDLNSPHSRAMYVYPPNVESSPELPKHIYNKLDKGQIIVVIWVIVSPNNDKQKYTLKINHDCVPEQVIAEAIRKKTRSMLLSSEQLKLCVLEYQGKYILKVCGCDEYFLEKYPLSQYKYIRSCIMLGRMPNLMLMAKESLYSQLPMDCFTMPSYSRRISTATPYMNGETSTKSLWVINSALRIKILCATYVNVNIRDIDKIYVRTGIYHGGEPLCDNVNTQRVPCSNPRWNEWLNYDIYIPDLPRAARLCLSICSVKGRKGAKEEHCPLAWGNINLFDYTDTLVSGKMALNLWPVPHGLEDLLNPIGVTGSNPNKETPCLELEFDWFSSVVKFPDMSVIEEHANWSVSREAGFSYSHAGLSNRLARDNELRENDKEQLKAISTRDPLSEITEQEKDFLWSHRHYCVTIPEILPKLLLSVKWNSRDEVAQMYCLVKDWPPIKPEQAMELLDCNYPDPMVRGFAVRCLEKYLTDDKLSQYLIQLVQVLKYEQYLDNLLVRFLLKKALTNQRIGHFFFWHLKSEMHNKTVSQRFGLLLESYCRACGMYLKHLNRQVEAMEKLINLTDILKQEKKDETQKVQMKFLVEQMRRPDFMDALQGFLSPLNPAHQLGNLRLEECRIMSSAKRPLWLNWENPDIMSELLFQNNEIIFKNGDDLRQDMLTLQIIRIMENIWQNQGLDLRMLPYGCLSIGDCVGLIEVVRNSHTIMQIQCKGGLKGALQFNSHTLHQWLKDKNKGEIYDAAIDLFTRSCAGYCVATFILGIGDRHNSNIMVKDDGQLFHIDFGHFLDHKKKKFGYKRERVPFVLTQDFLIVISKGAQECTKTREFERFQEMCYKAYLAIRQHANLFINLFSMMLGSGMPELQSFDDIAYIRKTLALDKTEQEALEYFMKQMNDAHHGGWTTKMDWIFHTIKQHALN
Sequence of PI3K alpha (P27986 whole entry partner, species assumed): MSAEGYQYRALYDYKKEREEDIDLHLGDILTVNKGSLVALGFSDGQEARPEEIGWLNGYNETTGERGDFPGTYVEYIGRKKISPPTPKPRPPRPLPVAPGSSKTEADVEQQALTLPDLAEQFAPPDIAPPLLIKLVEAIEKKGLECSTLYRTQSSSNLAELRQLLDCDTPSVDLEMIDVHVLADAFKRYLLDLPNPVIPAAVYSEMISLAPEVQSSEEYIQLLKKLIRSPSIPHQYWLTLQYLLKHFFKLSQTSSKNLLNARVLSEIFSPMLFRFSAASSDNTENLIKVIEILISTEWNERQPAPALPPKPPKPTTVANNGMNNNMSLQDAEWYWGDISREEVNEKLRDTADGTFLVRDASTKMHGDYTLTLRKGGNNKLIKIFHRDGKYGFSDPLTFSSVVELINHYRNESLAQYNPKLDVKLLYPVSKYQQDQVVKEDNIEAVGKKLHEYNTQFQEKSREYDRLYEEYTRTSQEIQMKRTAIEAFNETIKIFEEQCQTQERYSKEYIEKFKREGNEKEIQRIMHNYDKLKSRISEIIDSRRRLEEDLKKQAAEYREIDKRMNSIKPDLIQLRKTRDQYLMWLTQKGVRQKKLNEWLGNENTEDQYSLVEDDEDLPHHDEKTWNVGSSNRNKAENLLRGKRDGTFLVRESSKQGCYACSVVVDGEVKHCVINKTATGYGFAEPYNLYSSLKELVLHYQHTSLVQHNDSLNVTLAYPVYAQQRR

[1] = Microsome Stability (15 min), human; assay type: in vitro ADME; conditions: microsomes, Phase I (NADPH), read-out: Microsome Stability (15 min) T ½ Phase I human
[2] = Microsome Stability (15 min), rat; assay type: in vitro ADME; conditions: microsomes, Phase I (NADPH), read-out: Microsome Stability (15 min) T ½ Phase I rat
physchem = conditions: pH 7.4, aqueous buffer
[3] = PAMPA permeability pH 7.4
[4] = Buffer Stability (37° C.)
[5] = Plasma Stability (37° C.), rat
[6] = Plasma Stability (37° C.), nude mouse
[7] = In vivo blood/plasma and tumor levels of prodrug and metabolites after 50 mg, kg po; conditions: 50 mg
mTOR [8] = target: T1, mTOR (Homo sapiens, UniProt P42345); test: mTOR Enzyme Assay (DELFIA, purified enzyme); assay type: biochemical; parameters: FLAG; conditions: read-out: mTOR Mean IC50
[9] = CACO2 permeability a-b/b-a; assay type: in vitro ADME; conditions: human, Caco-2; for Papp A→B: a − b (first value of cell), read-out: CACO2 Pe a − b; for Papp B→A: b − a (second value of cell), read-out: CACO2 Pe b − a
[10] = Microsome Stability (15 min), nude mouse; assay type: in vitro ADME; conditions: microsomes, Phase I (NADPH), read-out: Microsome Stability (15 min) T ½ Phase I nude mouse
[11] = tested on: human tumor xenograft models; conditions: cited from earlier work
[12] = tested on: acute lymphoblastic leukemia; conditions: in vivo; cited from earlier work
mTOR [13] = target: T1, mTOR; conditions: read-out: mTOR IC50; mTOR complexes / mTOR enzymes; cited from earlier work

Structure (SMILES): COc1ccc2[nH]c(-c3ccccc3)c(/C=C3\Oc4cc(OC(=O)N(c5ccccc5)c5ccccc5)cc(OC(=O)N(c5ccccc5)c5ccccc5)c4C3=O)c2c1 [Example 11, (2Z)-2-[(5-methoxy-2-phenyl-1H-indol-3-yl)methylene]-3-oxo-2,3-dihydro-1-benzofuran-4,6-diyl bis(diphenylcarbamate)]
- pIC50 (PI3K alpha; read-out: PI3K alpha Mean IC50): < 5.30
- half-life [1]: 23 min
- half-life [2]: > 30 min
- solubility (physchem): 1 µg/mL (≈ 1.27 µM)
- PAMPA Pe [3]: 1.14 10e−6 cm/s
- Buffer Stability (37° C.) % Remaining (at 16-23 hours) SGF [4]: 100%
- Buffer Stability (37° C.) % Remaining (at 16-23 hours) SIF [4]: 98%
- Buffer Stability (37° C.) % Remaining (at 16-23 hours) pH 1 [4]: 99%
- Buffer Stability (37° C.) % Remaining (at 16-23 hours) pH 4.5 [4]: 103%
- Buffer Stability (37° C.) % Remaining (at 16-23 hours) pH 6.6 [4]: 100%
- Buffer Stability (37° C.) % Remaining (at 16-23 hours) pH 7.4 [4]: 100%
- Buffer Stability (37° C.) % Remaining (at 16-23 hours) pH 9 [4]: 89%
- Plasma Stability (37° C.) % Remaining (3-3.5 hours) rat [5]: 95%
- Plasma Stability (37° C.) % Remaining (3-3.5 hours) nude mouse [6]: 85%
- plasma prodrug concentration ([7]; 0.5 h): bql, bql
- plasma prodrug concentration ([7]; 2 h): bql, bql

Structure (SMILES): COc1ccc2[nH]c(-c3ccccc3)c(/C=C3\Oc4cc(OP(=O)(O)O)ccc4C3=O)c2c1 [Example 27, (2Z)-2-[(5-methoxy-2-phenyl-1H-indol-3-yl)methylene]-3-oxo-2,3-dihydro-1-benzofuran-6-yl dihydrogen phosphate]
- pIC50 (PI3K alpha; read-out: PI3K alpha Mean IC50): 6.91
- half-life [2]: 19 min
- pIC50 (mTOR [8]): 5.61
- solubility (physchem): 65 µg/mL
- PAMPA Pe [3]: 0 10e−6 cm/s

Structure (SMILES): COc1ccc2[nH]c(-c3ccccc3)c(/C=C3\Oc4cc(OP(=O)(O)O)cc(OP(=O)(O)O)c4C3=O)c2c1 [Example 38, (2Z)-2-[(5-methoxy-2-phenyl-1H-indol-3-yl)methylene]-3-oxo-2,3-dihydro-1-benzofuran-4,6-diyl bis[dihydrogen (phosphate)]]
- pIC50 (PI3K alpha; read-out: PI3K alpha Mean IC50): 6.05
- pIC50 (mTOR [8]): 6.01
- solubility (physchem): > 100 µg/mL
- PAMPA Pe [3]: 0.01 10e−6 cm/s

Structure (SMILES): CN(C)C(=O)Oc1cc(OC(=O)N(C)C)c2c(c1)O/C(=C\c1cn(C)c3nccc(-c4ccccc4)c13)C2=O [Example 43, (2Z)-2-[(1-methyl-4-phenyl-1H-pyrrolo[2,3-b]pyridin-3-yl)methylene]-3-oxo-2,3-dihydro-1-benzofuran-4,6-diyl bis(dimethylcarbamate)]
- pIC50 (PI3K alpha): < 5.00
- Papp A→B [9]: 2.2 ×10⁻⁶ cm/s
- Papp B→A [9]: 1 ×10⁻⁶ cm/s
- half-life [1]: 11 min
- half-life [10]: 12 min
- pIC50 (mTOR [8]): < 5.40
- PAMPA Pe [3]: Undetected
- Buffer Stability (37° C.) % Remaining (at 16-23 hours) SGF [4]: 100%
- Buffer Stability (37° C.) % Remaining (at 16-23 hours) SIF [4]: 100%
- Buffer Stability (37° C.) % Remaining (at 16-23 hours) pH 1 [4]: 100%
- Buffer Stability (37° C.) % Remaining (at 16-23 hours) pH 4.5 [4]: 100%
- Buffer Stability (37° C.) % Remaining (at 16-23 hours) pH 6.6 [4]: 100%
- Buffer Stability (37° C.) % Remaining (at 16-23 hours) pH 7.4 [4]: 100%
- Buffer Stability (37° C.) % Remaining (at 16-23 hours) pH 9 [4]: 100%
- Plasma Stability (37° C.) % Remaining (3-3.5 hours) rat [5]: 54%
- Plasma Stability (37° C.) % Remaining (3-3.5 hours) nude mouse [6]: 52%

Structure (SMILES): CN(C)C(=O)Oc1cccc2c1C(=O)/C(=C/c1cn(C)c3nccc(N4CC5CCC(C4)O5)c13)O2 [Example 44, (2Z)-2-{[1-methyl-4-(8-oxa-3-azabicyclo[3.2.1]oct-3-yl)-1H-pyrrolo[2,3-b]pyridin-3-yl]methylene}-3-oxo-2,3-dihydro-1-benzofuran-4-yl dimethylcarbamate]
- pIC50 (PI3K alpha): 5.60
- half-life [1]: 8 min
- half-life [10]: 4 min
- half-life [2]: 3 min
- pIC50 (mTOR [8]): 7.51
- PAMPA Pe [3]: Undetected
- Buffer Stability (37° C.) % Remaining (at 16-23 hours) SGF [4]: 102%
- Buffer Stability (37° C.) % Remaining (at 16-23 hours) SIF [4]: 100%
- Buffer Stability (37° C.) % Remaining (at 16-23 hours) pH 1 [4]: 102%
- Buffer Stability (37° C.) % Remaining (at 16-23 hours) pH 4.5 [4]: 100%
- Buffer Stability (37° C.) % Remaining (at 16-23 hours) pH 6.6 [4]: 100%
- Buffer Stability (37° C.) % Remaining (at 16-23 hours) pH 7.4 [4]: 100%
- Buffer Stability (37° C.) % Remaining (at 16-23 hours) pH 9 [4]: 100%
- Plasma Stability (37° C.) % Remaining (3-3.5 hours) rat [5]: 51%
- Plasma Stability (37° C.) % Remaining (3-3.5 hours) nude mouse [6]: 64%

Structure (SMILES): COc1ccc2c(c1)c(/C=C1\Oc3cc(OC(=O)N(C)c4ccccc4)ccc3C1=O)c(C)n2CCN1CCN(C)CC1 [Example 46, (2Z)-2-({5-methoxy-2-methyl-1-[2-(4-methylpiperazin-1-yl)ethyl]-1H-indol-3-yl}methylene)-3-oxo-2,3-dihydro-1-benzofuran-6-yl methyl(phenyl)carbamate]
- half-life [2]: 10 min
- pIC50 (mTOR [8]): < 5.40
- PAMPA Pe [3]: Undetected
- Buffer Stability (37° C.) % Remaining (at 16-23 hours) SGF [4]: 98%
- Buffer Stability (37° C.) % Remaining (at 16-23 hours) SIF [4]: 100%
- Buffer Stability (37° C.) % Remaining (at 16-23 hours) pH 1 [4]: 101%
- Buffer Stability (37° C.) % Remaining (at 16-23 hours) pH 4.5 [4]: 99%
- Buffer Stability (37° C.) % Remaining (at 16-23 hours) pH 6.6 [4]: 98%
- Buffer Stability (37° C.) % Remaining (at 16-23 hours) pH 7.4 [4]: 97%
- Buffer Stability (37° C.) % Remaining (at 16-23 hours) pH 9 [4]: 96%
- Plasma Stability (37° C.) % Remaining (3-3.5 hours) rat [5]: 22%
- Plasma Stability (37° C.) % Remaining (3-3.5 hours) nude mouse [6]: 19%

Structure (SMILES): COc1ccc2c(c1)c(/C=C1\Oc3cc(OC(=O)N(C(C)C)C(C)C)ccc3C1=O)c(C)n2CCN1CCN(C)CC1 [Example 47, (2Z)-2-({5-methoxy-2-methyl-1-[2-(4-methylpiperazin-1-yl)ethyl]-1H-indol-3-yl}methylene)-3-oxo-2,3-dihydro-1-benzofuran-6-yl diisopropylcarbamate]
- pIC50 (PI3K alpha): < 5.00
- half-life [2]: 16 min
- pIC50 (mTOR [8]): < 5.40
- PAMPA Pe [3]: Undetected
- Buffer Stability (37° C.) % Remaining (at 16-23 hours) SGF [4]: 98%
- Buffer Stability (37° C.) % Remaining (at 16-23 hours) SIF [4]: 94%
- Buffer Stability (37° C.) % Remaining (at 16-23 hours) pH 1 [4]: 97%
- Buffer Stability (37° C.) % Remaining (at 16-23 hours) pH 4.5 [4]: 100%
- Buffer Stability (37° C.) % Remaining (at 16-23 hours) pH 6.6 [4]: 95%
- Buffer Stability (37° C.) % Remaining (at 16-23 hours) pH 7.4 [4]: 100%
- Buffer Stability (37° C.) % Remaining (at 16-23 hours) pH 9 [4]: 96%
- Plasma Stability (37° C.) % Remaining (3-3.5 hours) rat [5]: 92%
- Plasma Stability (37° C.) % Remaining (3-3.5 hours) nude mouse [6]: 82%

Structure (SMILES): CN(C)C(=O)Oc1cc(OC(=O)N(C)C)c2c(c1)O/C(=C\c1cn(C)c3cccc(-c4ccccc4)c13)C2=O [Example 48, (2Z)-2-[(1-methyl-4-phenyl-1H-indol-3-yl)methylene]-3-oxo-2,3-dihydro-1-benzofuran-4,6-diyl bis(dimethylcarbamate)]
- pIC50 (PI3K alpha): < 5.00
- Papp A→B [9]: 0.5 ×10⁻⁶ cm/s
- Papp B→A [9]: 0.5 ×10⁻⁶ cm/s
- half-life [1]: 25 min
- half-life [10]: 14 min
- pIC50 (mTOR [8]): 5.50
- PAMPA Pe [3]: Undetected
- Buffer Stability (37° C.) % Remaining (at 16-23 hours) SGF [4]: 100%
- Buffer Stability (37° C.) % Remaining (at 16-23 hours) SIF [4]: 100%
- Buffer Stability (37° C.) % Remaining (at 16-23 hours) pH 1 [4]: 100%
- Buffer Stability (37° C.) % Remaining (at 16-23 hours) pH 4.5 [4]: 100%
- Buffer Stability (37° C.) % Remaining (at 16-23 hours) pH 6.6 [4]: 100%
- Buffer Stability (37° C.) % Remaining (at 16-23 hours) pH 7.4 [4]: 100%
- Buffer Stability (37° C.) % Remaining (at 16-23 hours) pH 9 [4]: 100%
- Plasma Stability (37° C.) % Remaining (3-3.5 hours) rat [5]: >100%
- Plasma Stability (37° C.) % Remaining (3-3.5 hours) nude mouse [6]: 80%

Structure (SMILES): Cn1c(=O)n(-c2ccc(C(C)(C)C#N)cc2)c2c3cc(-c4cnc5ccccc5c4)ccc3ncc21 [NVP-BEZ-235, 2-methyl-2-(4-(3-methyl-2-oxo-8-(quinolin-3-yl)-2,3-dihydro-1H-imidazo[4,5-c]quinolin-1-yl)phenyl)propanenitrile]
- activity in human tumor xenograft models ([11]; prostrate (PC-3) and glioblastoma (U-87)): demonstrated activity

Structure (SMILES): Oc1cccc(-c2nc(N3CCOCC3)c3oc4ncccc4c3n2)c1 [PI103, 3-(4-(4-morpholinyl)pyrido[3′,′: 4,5]furo[3,2-d]pyrimidin-2-yl)phenol]
- activity in human tumor xenograft models ([11]; I.P. dosing in mice, U87MG, PC3, MDA-MB-468, MDA-MB-435, HCT 116, SKOV3, IGROV-1): demonstrated activity

Structure (SMILES): CO[C@H]1C[C@@H]2CC[C@@H](C)[C@@](O)(O2)C(=O)C(=O)N2CCCC[C@H]2C(=O)O[C@H]([C@H](C)C[C@@H]2CC[C@@H](OC(=O)C(C)(CO)CO)[C@H](OC)C2)CC(=O)[C@H](C)/C=C(\C)[C@@H](O)[C@@H](OC)C(=O)[C@H](C)C[C@H](C)/C=C/C=C/C=C/1C [Torisel]
- activity in NOS/SCID xenograft mouse model of acute lymphoblastic leukemia [12]: active

Structure (SMILES): FC(F)c1nc2ccccc2n1-c1nc(N2CCOCC2)nc(N2CCOCC2)n1 [ZSTK474, 2-(2-difluoromethylbenzoimidazol-1-yl)-4,6-dimorpholino-1,3,5-triazine]
- tumor growth in mouse human xenograft cancer models ([11]; chronic oral administration, 400 mg/kg, A549, PC-3, WiDr): completely inhibited growth
- pIC50 (mTOR [13]): < 5.00
